Measurements published in patent publication US20010044151A1, “Ligands for modulating the expression of exogenous genes via an ecdysone receptor complex” (priority 1998, published 2001).

Biological target: CfEcR(CDEF)-GST and CfUSP-GST fusion proteins
Assay: Competitive 3H-ponasterone A binding assay, bacterial GST fusion proteins
Design: species or system Choristoneura fumiferana
Conditions: bacterial CfEcR(CDEF)-GST/CfUSP-GST extracts, 3H-ponasterone A displacement
From the text: Bacterial glutathion-S-transferase (GST) fusion proteins of the spruce budworm (Choristoneura fumiferana) EcR (CfEcR), containing CDEF domains only, and ultraspiracle protein (CfUSP) were also used in radioligand displacement assays. cDNA encoding the CDEF domains of CfEcR were constructed following PCR amplification using primers that contain BamH1 and EcoRI sites (Perera S C, M Sundaram, Krell P J, Retnakaran A, Dhadialla T S, S R Palli, 1999 Arch. Insect Biochem. Physiol. 41 In Press). The PCR produce was digested with BamHI and EcoRI and cloned into pGEX-3X vector obtained from Pharmacia Biotech. CfUSP coding region was amplified using primers that contain BamH1 and EcoRI sites and cloned into to pGEX-2T vector obtained from Pharmacia Biotech. E. coli transformed with each of the two vectors were grown and induced to produce the fusion proteins as detailed in the Pharmacia Biotech GST-technical bulletin.
(§1) The concentrations of competitors that inhibited 50% of tritiated ponasterone A binding (IC50) was determined by incubating Kc or Plodia nuclear extracts or extracts of bacteria producing CfEcR(CDEF)-GST and CfUSP-GST fusions proteins with ^3H-ponasterone A (66,000 dpm per reaction) in the presence of a range of concentrations (0.1 nM to 10 μM) of test compounds. In the case of binding reactions using bacterial fusion proteins, 20 or one μl extract of bacteria producing CfEcR(CDEF)-GST or CfUSP-GST fusion proteins, respectively, were included per binding reaction. The assay conditions and determination of total and non-specific binding was as described above. The volume of competitor in solvent, like that for 20E or solvent alone, was kept at 1% of total reaction volume by using a 100 fold concentrated stock solution (i.e. a 100 fold dilution of stock solutions). The remainder of the assay was as described above. Each reaction was carried out in duplicate per concentration per test compound. […]

SMILES | Bacterial CfECR log(1/IC50)
Cc1cc(C)cc(C(=O)N(NC(=O)c2cccc(O)c2C)C(C)(C)C)c1 [Ligand 14] | 8.61
Cc1cc(CO)cc(C(=O)N(NC(=O)c2cccc(O)c2C)C(C)(C)C)c1 [Ligand 15] | 8.49

Biological target: T1, ecdysteroid receptor complex in Plodia interpunctella (IAL-PID2) nuclear extract (Plodia interpunctella, UniProt Q6RVD3)
T1 sequence (Q6RVD3 1-541): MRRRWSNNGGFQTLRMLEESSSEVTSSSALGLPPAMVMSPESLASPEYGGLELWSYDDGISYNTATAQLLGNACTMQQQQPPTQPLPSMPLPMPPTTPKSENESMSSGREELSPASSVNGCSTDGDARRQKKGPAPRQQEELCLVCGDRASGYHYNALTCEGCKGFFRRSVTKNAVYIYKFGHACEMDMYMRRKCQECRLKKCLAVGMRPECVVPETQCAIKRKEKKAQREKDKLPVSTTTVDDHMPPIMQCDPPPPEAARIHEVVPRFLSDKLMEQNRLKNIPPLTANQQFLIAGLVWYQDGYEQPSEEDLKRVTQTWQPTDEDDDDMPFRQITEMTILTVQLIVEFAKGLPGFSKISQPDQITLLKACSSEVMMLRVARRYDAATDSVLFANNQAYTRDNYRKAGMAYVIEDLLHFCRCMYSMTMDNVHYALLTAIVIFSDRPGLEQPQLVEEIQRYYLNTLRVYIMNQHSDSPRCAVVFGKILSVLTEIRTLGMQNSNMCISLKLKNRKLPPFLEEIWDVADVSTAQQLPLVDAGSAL
T1 sequence (Q6IVK1 1-415 partner): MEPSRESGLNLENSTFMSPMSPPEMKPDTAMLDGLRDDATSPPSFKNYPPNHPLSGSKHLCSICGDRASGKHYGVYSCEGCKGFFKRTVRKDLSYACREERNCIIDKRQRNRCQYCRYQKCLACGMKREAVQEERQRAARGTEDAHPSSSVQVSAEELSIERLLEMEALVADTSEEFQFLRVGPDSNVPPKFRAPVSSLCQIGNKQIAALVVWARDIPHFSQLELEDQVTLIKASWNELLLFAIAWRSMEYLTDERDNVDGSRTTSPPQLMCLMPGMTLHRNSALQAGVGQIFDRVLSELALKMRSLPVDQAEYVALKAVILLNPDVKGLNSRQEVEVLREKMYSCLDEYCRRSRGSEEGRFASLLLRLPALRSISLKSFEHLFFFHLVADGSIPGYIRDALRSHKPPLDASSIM
Assay: Competitive 3H-ponasterone A binding assay, Plodia nuclear ecdysone receptor extract
Conditions: 3H-ponasterone A displacement
Description: The cell line IAL-PID2, derived from imaginal wing discs of the lepidopteran Plodia interpunctella was obtained from H. Oberlander and maintained as described (Lynn, E. E. and Oberlander, H., (1983), J. Insect Physiology, 29, 591-96). A 300 ml stationary phase culture of P. interpunctella cells was centrifuged at 700×g for 10 mm at room temperature to pellet the cells. The supernatant was aspirated and the cellular pellet resuspended in 35 ml TMT (TM buffer with 0.1% Triton X-100). The suspension was homogenized with twenty up and down strokes of a Dounce homogenizer on ice. Homogenate was incubated on ice for 10 minutes and then centrifuged for 15 min at 900×g. The pellet was resuspenced in 15 ml TM buffer and centrifuged at 2,300×g. This pellet was extracted in TMK buffer (TM buffer with 800 mM KCl) by using a glass rod to crush the pellet until a gelatinous slurry was formed and incubated on ice for 15 minutes. The extract was centrifuged at 100,000×g in a swinging bucket rotor for 60 minutes. The supernatant, which constituted the nuclear extract, was desalted on a 10 DG desalting column (Bio-Rad, 732-2010) equilibrated with T-buffer. The total protein concentration in the nuclear extract was adjusted to 5 mg per ml with T-buffer containing 1 mM DTT.
^3H ponasterone A, a potent phytoecdysteroid, (66,000 dpm; specific activity 170 Ci/mmole; NEN Life Science Products, Boston, Mass.) was mixed with 100 μl Kc cytosolic or Plodia nuclear ecdysone receptor extracts in […] glass test tubes in the absence or presence of 10 μM unlabelled 20-hydroxyecdysone (20E) to obtain an estimate of total or non-specific respectively, binding of tritiated ponasterone A. The tubes were vortexed and incubated overnight at 4° C. for Kc cytosolic extracts or 1.5 hours for Plodia nuclear extracts for binding reactions to reach equilibrium. At the end of equilibrium binding times, the bound tritiated ponasterone A was separated from the unbound by addition of ice-cold 600 μl or 300 μl dextran-coated charcoal solution (500 mg of Sigma HCL-washed activated charcoal, 50 mg Pharmacia Dextran T70, 50 ml T-buffer) to Kc or Plodia extracts, respectively. The tubes were vortexed briefly and centrifuged at 7,000×g to pellet the charcoal. The supernatant, 600 μl or 300 μl for Kc or Plodia extract reactions, respectively, containing tritiated ponasterone A bound to proteins, was aspirated into liquid scintillation vials containing 5 ml scintillation cocktail (ReadySafe®, Beckmann) each The mixture was vortexed and the amount of total or non-specifically bound radioactivity measured in a Beckmann LS500 liquid scinitllation counter with a 60% counting efficiency for tritium.
as §1, with “compound. Specific binding of ^3H-ponasterone A was determined by subtracting non-specific binding (that obtained in the presence of 10 μM 20E) from total (no competitor) or competed radioactivity bound.” for “compound.”

SMILES | Plodia log(1/IC50)
CCOc1cccc(C(=O)NN(C(=O)c2cc(C)cc(C)c2)C(C)(C)C)c1C [Ligand 6] | 8.82
CCc1c(C(=O)NN(C(=O)c2cc(C)cc(C)c2)C(C)(C)C)ccc2c1OCCO2 [Ligand 7] | 8.78
COc1cccc(C(=O)NN(C(=O)c2cc(Cl)cc(Cl)c2)C(C)(C)C)c1C [Ligand 9] | 9.00
CCc1c(OC)cccc1C(=O)NN(C(=O)c1cc(C)cc(Cl)c1)C(C)(C)C [Ligand 10] | 8.80
COc1cccc(C(=O)NN(C(=O)c2cc(C)cc(C)c2)C(C)(C)C)c1C(C)C [Ligand 11] | 8.93
